Measurements as given in patent publication US9309222B2, “Phenyl linked quinolinyl modulators of RORγt” (Janssen Pharmaceutica NV, priority 2012, dated 2016).
Structures can show the parent of a compound that is named as a salt.

Assays:
[1] = tested on: IL-17 production by CD4 T cells; assay: Human Th17 assay (IL-17 production by CD4 T cells under Th17 differentiation conditions); assay type: cell-based; conditions: Homo sapiens, CD4+ T, 72 h, IL-17 in supernatant after 3 days
In short: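 Primary CD4+ T cells from healthy-donor PBMC, preincubated 1 h with titrated compound (0.2% DMSO), then activated with anti-CD3/CD28 beads plus anti-IL4, anti-IFNγ, IL1β, IL23, IL6, TGFβ and IL2.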

[2] = molecular target: T1, human RORγt ligand binding domain (RORγt LBD) (Homo sapiens, UniProt P51449); assay: RORγt ThermoFluor assay (thermal shift, ligand binding affinity); conditions: estimated from concentration response of thermal shift
T1 construct: His-tag (N); TurboTEV protease cleavage site (ENLYFQG) (N); made in house; host or cells: E. coli (pHIS1, modified pET vector)
T1 sequence (P51449 with tags, fused parts or gaps): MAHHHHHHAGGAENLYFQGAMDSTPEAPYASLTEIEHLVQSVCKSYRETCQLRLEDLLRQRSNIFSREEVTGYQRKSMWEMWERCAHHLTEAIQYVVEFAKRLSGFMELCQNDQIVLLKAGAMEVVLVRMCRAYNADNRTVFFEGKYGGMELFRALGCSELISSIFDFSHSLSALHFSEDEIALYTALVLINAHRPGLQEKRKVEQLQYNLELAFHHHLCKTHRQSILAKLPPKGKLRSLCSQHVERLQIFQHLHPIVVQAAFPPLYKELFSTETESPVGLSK
In short: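 Thermal shift of 0.065 mg/mL RORγt with 60 μM 1,8-ANS in 100 mM Hepes pH 7.0, 10 mM NaCl, 2.5 mM GSH, 0.002% Tween-20. Compounds in 1:2 series from 10 mM DMSO stock. Dye fluorescence (500 nm emission) tracked versus temperature; ΔTm used to derive KD.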

human RORγt LBD = molecular target: T2, human RORγt LBD (Homo sapiens, UniProt P51449); assay: RORγt reporter assay (GAL4-RORγt LBD luciferase in HEK293T cells); assay type: cell-based; conditions: for IC50: HEK293T cells, 24 hours compound treatment; for inhibition at 6 µM: HEK-293T, read-out: RORγt reporter Assay, % inhibition @ 6 μM, HEK293T cells, 6 μM compound
T2 construct: expressed in transfected cells
T2 sequence (P51449 258-518): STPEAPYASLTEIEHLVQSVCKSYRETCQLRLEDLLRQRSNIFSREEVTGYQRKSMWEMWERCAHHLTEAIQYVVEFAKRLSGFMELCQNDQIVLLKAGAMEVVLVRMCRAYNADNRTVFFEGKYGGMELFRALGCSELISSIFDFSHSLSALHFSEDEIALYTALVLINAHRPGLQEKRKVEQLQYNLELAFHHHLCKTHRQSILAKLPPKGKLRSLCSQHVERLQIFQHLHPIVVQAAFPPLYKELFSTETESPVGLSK
In short: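 HEK293T cells transiently co-transfected with pBIND (GAL4 DBD fused to wild-type human RORγt LBD, plus SV40-driven renilla luciferase) and pGL4.31 GAL4-responsive firefly luciferase reporter. Plated in phenol-red-free DMEM with 5% lipid-reduced FCS and treated with compound for 24 h. Firefly/renilla luminescence ratio plotted against compound concentration.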

Row | SMILES | IC50 [1] | Kd [2] | IC50 (human RORγt LBD) | inhibition at 6 µM (human RORγt LBD)
1 | CCCCN(C)c1nc2ccc(C(O)(c3ccncc3)c3cncn3C)cc2c(Cl)c1-c1ccccc1 (stereo not drawn) [Example 76, {2-[Butyl(methyl)amino]-4-chloro-3-phenylquinolin-6-yl}(1-methyl-1H-imidazol-5-yl)pyridin-4-ylmethanol•TFA] | 40 nM | 2.3 nM | 4.9 nM | 100%
2 | COc1nc2ccc(C(O)(c3cccnc3)c3cccc(Cl)c3)cc2c(Cl)c1-c1ccccc1 (stereo not drawn) [Example 80, (4-Chloro-2-methoxy-3-phenylquinolin-6-yl)(3-chlorophenyl)pyridin-3-ylmethanol•TFA] | 120 nM | 55 nM | 25 nM | 89%
3 | CC(C)Oc1nc2ccc(C(O)(c3cccnc3)c3cccc(Cl)c3)cc2c(Cl)c1-c1ccccc1 (stereo not drawn) [Example 84, [4-Chloro-2-(1-methylethoxy)-3-phenylquinolin-6-yl](3-chlorophenyl)pyridin-3-ylmethanol•TFA] | 1300 nM | 1400 nM | 890 nM | 73%
4 | Cc1cc(C(O)(c2ccc3nc(Cl)c(-c4ccccc4)c(Cl)c3c2)c2cncn2C)cc(Cl)n1 (stereo not drawn) [Example 87, (2-Chloro-6-methylpyridin-4-yl)(2,4-dichloro-3-phenylquinolin-6-yl)(1-methyl-1H-imidazol-5-yl)methanol•TFA] | ~2 nM | 0.11 nM | 5.3 nM | 105%
5 | CCOc1nc2ccc(C(O)(c3ccncc3)c3cncn3C)cc2c(Cl)c1-c1ccccc1 (stereo not drawn) [Example 88, (4-Chloro-2-ethoxy-3-phenylquinolin-6-yl)(1-methyl-1H-imidazol-5-yl)pyridin-4-ylmethanol•TFA] | 68 nM | 9.6 nM | 37 nM | 100%
6 | CC(C)Oc1nc2ccc(C(O)(c3ccncc3)c3cncn3C)cc2c(Cl)c1-c1ccccc1 (stereo not drawn) [Example 89, [4-Chloro-2-(1-methylethoxy)-3-phenylquinolin-6-yl](1-methyl-1H-imidazol-5-yl)pyridin-4-ylmethanol•TFA] | 300 nM | 34 nM | 160 nM | 99%
7 | CC(C)Oc1nc2ccc(C(O)(c3ccncc3)c3cncn3C)cc2c(N(C)C)c1-c1ccccc1 (stereo not drawn) [Example 90, [4-(Dimethylamino)-2-(1-methylethoxy)-3-phenylquinolin-6-yl](1-methyl-1H-imidazol-5-yl)pyridin-4-ylmethanol•TFA] | 800 nM | 91 nM | 300 nM | 96%
8 | CCOc1nc2ccc(C(O)(c3ccncc3)c3cncn3C)cc2c(N(C)C)c1-c1ccccc1 (stereo not drawn) [Example 92, [4-(Dimethylamino)-2-ethoxy-3-phenylquinolin-6-yl](1-methyl-1H-imidazol-5-yl)pyridin-4-ylmethanol•TFA] | 150 nM | 44 nM | 120 nM | 100%
9 | CC(=O)N1CCC(C(O)(c2cccnc2)c2ccc3nc(Cl)c(-c4ccccc4)c(Cl)c3c2)CC1 (stereo not drawn) [Example 95, (1-Acetylpiperidin-4-yl)(2,4-dichloro-3-phenylquinolin-6-yl)pyridin-3-ylmethanol•TFA] | > 6000 nM | 23 nM | 500 nM | 98%
10 | CC(=O)N1CCCC(C(O)(c2cccnc2)c2ccc3nc(Cl)c(-c4ccccc4)c(Cl)c3c2)C1 (stereo not drawn) [Example 96, (1-Acetylpiperidin-3-yl)(2,4-dichloro-3-phenylquinolin-6-yl)pyridin-3-ylmethanol•TFA] | > 6000 nM | 29 nM | 370 nM | 98%
11 | CCc1nc2ccc(C(O)(c3ccncc3)c3cncn3C)cc2c(N(C)C)c1-c1ccccc1 (stereo not drawn) [Example 98, [4-(Dimethylamino)-2-ethyl-3-phenylquinolin-6-yl](1-methyl-1H-imidazol-5-yl)pyridin-4-ylmethanol•TFA] | 300 nM | 36 nM | 350 nM | 98%
12 | CCN(CC)c1nc2ccc(C(O)(c3cccnc3)c3cccc(Cl)c3)cc2c(Cl)c1-c1ccccc1 (stereo not drawn) [Example 100, (4-Chloro-2-(diethylamino)-3-phenylquinolin-6-yl)(3-chlorophenyl)pyridin-3-ylmethanol•TFA] | 150 nM | 350 nM | 160 nM | 95%
